Test: Solubility of the dye
Type: physicochemical

solubility compared with Acid Red 82: less than that of Acid Red 82
SMILES: Cc1ccc(Nc2ccc3c4c(cc(=O)n3C)-c3ccccc3C(=O)c24)c(S(=O)(=O)[O-])c1.[Na+] [Acid Red 80, C. I. Acid Red 80]
